Consider 22 molecules from PMC7125024 (ChemMedChem, 2020).

The IC50 is the concentration that inhibits the measured activity by half. As usually defined, the microsomal CLint is the capacity of the preparation to metabolise the compound, expressed as a volume cleared per time. Low values mean greater metabolic stability, high ones faster metabolism. What is called inhibition is how much of the control response was suppressed. Broadly, the % inhibition is the relative decrease from the control value, in per cent.

The target of data set [1] is human recombinant LSD1/CoREST enzymatic complex (Homo sapiens, UniProt O60341). Nature of the data set: LSD1 enzyme inhibition assay. In kind it is biochemical.
Data set [2] concerns NB4 APL cells. Nature of the data set: cells. The settings on record: Homo sapiens, 48 h, read-out: IC50 NB4 (antiproliferative activity).
Data set [3] has as its system MV4–11 AML cells. Briefly: cells. The settings on record: Homo sapiens, MV4-11, 48 h, read-out: IC50 MV4–11 (antiproliferative activity).
A short description of data set [4]: Microsomal stability in liver microsomes. Type of data set: in vitro ADME. The settings on record: human, pH 7.4. On the technique in general: Liver microsomes are vesicles of endoplasmic reticulum, rich in cytochrome P450 enzymes.
Data set [5] can be described thus: Microsomal stability in liver microsomes. In kind it is in vitro ADME. The settings on record: mouse, pH 7.4.
In data set [6] the target is T1, human MAO B (Homo sapiens, UniProt P27338).
T1 sequence (P27338 1-520): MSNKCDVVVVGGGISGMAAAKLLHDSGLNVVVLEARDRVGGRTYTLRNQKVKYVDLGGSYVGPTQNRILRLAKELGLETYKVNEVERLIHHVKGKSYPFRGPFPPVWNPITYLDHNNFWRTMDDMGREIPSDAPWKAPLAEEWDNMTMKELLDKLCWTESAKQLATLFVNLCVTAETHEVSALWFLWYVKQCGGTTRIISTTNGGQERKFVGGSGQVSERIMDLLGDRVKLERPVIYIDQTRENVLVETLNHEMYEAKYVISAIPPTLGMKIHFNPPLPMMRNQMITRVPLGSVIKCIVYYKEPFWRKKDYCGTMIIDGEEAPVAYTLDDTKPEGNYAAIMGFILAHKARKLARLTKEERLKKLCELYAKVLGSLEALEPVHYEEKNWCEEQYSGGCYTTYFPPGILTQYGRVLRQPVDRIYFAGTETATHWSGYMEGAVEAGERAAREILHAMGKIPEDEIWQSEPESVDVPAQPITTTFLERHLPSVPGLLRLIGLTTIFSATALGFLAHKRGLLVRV
Briefly: Anti-MAO assay. In kind it is biochemical. The settings on record: read-out: % inhibition at 100 μM MAO B.

The next data set concerns the target T2, human MAO A (Homo sapiens, UniProt P21397).
T2 sequence (P21397 1-527): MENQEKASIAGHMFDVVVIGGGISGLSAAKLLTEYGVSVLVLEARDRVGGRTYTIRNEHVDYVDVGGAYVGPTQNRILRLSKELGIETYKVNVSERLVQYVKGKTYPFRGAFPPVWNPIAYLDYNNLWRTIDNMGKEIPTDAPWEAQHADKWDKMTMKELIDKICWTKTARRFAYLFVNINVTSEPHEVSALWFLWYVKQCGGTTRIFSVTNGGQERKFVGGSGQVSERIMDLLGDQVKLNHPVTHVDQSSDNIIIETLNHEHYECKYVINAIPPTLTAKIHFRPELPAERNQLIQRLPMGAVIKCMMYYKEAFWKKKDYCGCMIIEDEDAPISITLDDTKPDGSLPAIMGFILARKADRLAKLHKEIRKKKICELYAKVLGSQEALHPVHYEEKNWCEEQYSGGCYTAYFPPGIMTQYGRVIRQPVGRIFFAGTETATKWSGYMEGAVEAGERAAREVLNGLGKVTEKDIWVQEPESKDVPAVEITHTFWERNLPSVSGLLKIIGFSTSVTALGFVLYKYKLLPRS
Nature of the data set: Anti-MAO assay. In kind it is biochemical. The settings on record: for inhibition at 100 µM: read-out: % inhibition at 100 μM MAO A; for % inhibition at 100 μM MAO A: NI = no inhibition.

For data set [7], the target named is T1, human MAO B. The settings on record: added for comparison, ref [13b], [19]; cited from earlier work.
Data set [8] deals with MV4–11 AML cells. The settings on record: read-out: IC50 MV4–11 (antiproliferative activity), 48 h.
The subject of data set [9] is NB4 APL cells. The settings on record: read-out: IC50 NB4 (antiproliferative activity), 48 h.
The mark [10] stands for this setting: read-out: LSD1, IC50, LSD1/CoREST, 15 min preincubation, NI = no inhibition.

Where a name gives a salt, the structure may show the parent alone. Read-outs that look alike come from different tables or passages of the source.

Regarding `NC1CC1c1ccc(NC(=O)c2cc(NC(=O)c3ccccc3)ccc2OCC(=O)Nc2ccccc2)cc1` (centres unmarked) [3m, N-(4-(2-aminocyclopropyl)phenyl)-5-benzamido-2-(2-oxo-2-(phenylamino)ethoxy)benzamide hydrochloride], the IC50 in [1] is 3.9 ± 0.2 µM; in the data set with NB4 APL cells [2] it was 5.5 ± 1.4 µM; in the data set on MV4–11 AML cells [3], 5.6 ± 1.1 µM.
Regarding `NNC(=O)C1CC1c1ccccc1` (centres unmarked) [4d, 2-phenylcyclopropane-1-carbohydrazide], the IC50 in [1] (setting [10]) is over 100 µM.
`Cl.NC1CC1c1cccc(NC(=O)C(Cc2ccccc2)NC(=O)OCc2ccccc2)c1` (centres unmarked) [2b, Benzyl (1-((3-(2-aminocyclopropyl)phenyl)amino)-1-oxo-3-phenylpropan-2-yl)carbamate hydrochloride]: the results for the IC50 (in [1]; in the data set with NB4 APL cells [2]; with MV4–11 AML cells [3]) were 18.1 ± 2.9 µM, 42.7 ± 5.8 µM and 24.2 ± 3.1 µM, respectively. The “fold decrease of anti-LSD1 potency relative to 2a” value in [1] was over 120 fold.
For the molecule `NC1CC1c1ccc(NC(=O)c2ccc(Oc3ccccc3)c(NC(=O)OCc3ccccc3)c2)cc1` (centres unmarked) [3h, Benzyl (5-((4-(2-aminocyclopropyl)phenyl)carbamoyl)-2-phenoxyphenyl)carbamate hydrochloride], the values for the IC50 (in data set [1]; in the data set with NB4 APL cells [2]; in the data set with MV4–11 AML cells [3]) were 0.143 ± 0.028 µM, 5.4 ± 0.6 µM and 3.3 ± 0.3 µM, respectively.
With `NC1CC1c1ccc(NC(=O)c2ccc(NC(=O)OCc3ccccc3)cc2)cc1` (centres unmarked) [3a, Benzyl (4-((4-(2-aminocyclopropyl)phenyl)carbamoyl)phenyl)carbamate hydrochloride], the IC50 in data set [1] amounted to 0.09 ± 0.012 µM; in the data set with NB4 APL cells [2], 0.6 ± 0.02 µM; with MV4–11 AML cells [3] it was 0.4 ± 0.01 µM. Moreover, the values for the microsomal CLint at 1 μM in [4] and in [5] were 6.7 ± 1.1 µL/min/mg and 7.1 ± 2.2 µL/min/mg, respectively. In addition, the inhibition at 100 µM on human MAO B [6] was determined as 8%; on human MAO A, 37%.
On to `CN1CCN(c2cc(C(=O)Nc3ccc(C4CC4N)cc3)ccc2NC(=O)OCc2ccccc2)CC1` (centres unmarked) [3c, Benzyl 4-(4-(2-aminocyclopropyl)phenylcarbamoyl)-2-(4-methylpiperazin-1-yl)phenylcarbamate hydrochloride], for which the figures for the IC50 (in [1]; with NB4 APL cells [2]; with MV4–11 AML cells [3]) were 0.089 ± 0.01 µM, 0.9 ± 0.06 µM and 2.5 ± 0.1 µM, respectively. Further, the inhibition at 100 µM is 55% on human MAO B [6] and 69% on human MAO A.
Take `NC1CC1c1ccc(NC(=O)c2ccc(-c3ccccc3)cc2NC(=O)OCc2ccccc2)cc1` (centres unmarked) [3l, Benzyl (4-((4-(2-aminocyclopropyl)phenyl)carbamoyl)-[1,1’-biphenyl]-3-yl)carbamate hydrochloride]: the IC50 was 0.135 ± 0.029 µM in [1], 7.6 ± 0.8 µM in the data set with NB4 APL cells [2] and 8.1 ± 1 µM with MV4–11 AML cells [3].
As for `NCC1(c2ccccc2)CC1` [4h, (1-phenylcyclopropyl)methanamine], the IC50 in data set [1] (setting [10]) was over 100 µM.
In the case of `CN(C)C1CC1c1ccccc1` (centres unmarked) [4b, N,N-dimethyl-TCP], the IC50 in data set [1] (setting [10]) worked out at 56.2 ± 7.8 µM. Besides, the “LSD1/CoREST potency relative to TCP (fold less effective)” value in data set [1] is listed as 5 fold.
`NC1CC1c1ccc(NC(=O)c2ccc(Sc3ccccc3)c(NC(=O)OCc3ccccc3)c2)cc1` (centres unmarked) [3i, Benzyl (5-((4-(2-aminocyclopropyl)phenyl)carbamoyl)-2-(phenylthio)phenyl)carbamate hydrochloride]: the IC50 was determined as 0.073 ± 0.011 µM in data set [1], 23.2 ± 3.8 µM in the data set with NB4 APL cells [2] and 21.4 ± 3.3 µM in the data set with MV4–11 AML cells [3].
As to `NC1CC1c1ccc(NC(=O)C(Cc2ccccc2)NC(=O)OCc2ccccc2)cc1` (centres unmarked) [2a], the “% inhibition at 100 μM MAO B” value at human MAO B [7] is listed as 1%.
For `NC1CC1c1ccc(NC(=O)c2cc(NC(=O)c3ccccc3)ccc2OCC(=O)NCc2ccccc2)cc1` (centres unmarked) [3n, N-(4-(2-aminocyclopropyl)phenyl)-5-benzamido-2-(2-(benzylamino)-2-oxoethoxy)benzamide], the values for the IC50 (in data set [1]; in the data set with NB4 APL cells [2]; with MV4–11 AML cells [3]) were 1.7 ± 0.05 µM, 3.8 ± 0.8 µM and 3.3 ± 0.6 µM, respectively.
Consider `NC(=O)C1(c2ccccc2)CC1` [4g, 1-Phenylcyclopropane-1-carboxamide], for which the IC50 in [1] (setting [10]) is over 100 µM.
As for `Cl.NC1CC1c1ccc(NC(=O)c2ccc(Br)cc2NC(=O)OCc2ccccc2)cc1` (centres unmarked) [3k, Benzyl (2-((4-(2-aminocyclopropyl)phenyl)carbamoyl)-5-bromophenyl)carbamate hydrochloridrate], the IC50 with MV4–11 AML cells [8] turned out to be 6.2 ± 0.7 µM; in data set [1] (setting [10]), 0.159 ± 0.034 µM; in the data set on NB4 APL cells [9], 9.3 ± 1 µM. For the same molecule, the “% inhibition at 100 μM MAO A” value on human MAO A came out at 94%.
For `CNC1CC1c1ccccc1` (centres unmarked) [4a, N-methyl-TCP], the IC50 in data set [1] (setting [10]) was 10.8 ± 1.1 µM. Further, in [1], the “LSD1/CoREST potency relative to TCP (fold less effective)” value was “same potency of TCP”.
For `NN1CC1c1ccccc1` (centres unmarked) [4i, 2-phenylaziridin-1-amine], the IC50 in data set [1] (setting [10]) is over 100 µM.
For the molecule `N[C@@H]1C[C@H]1c1ccccc1` (racemic) [TCP, tranylcypromine, reference compound], the IC50 in the data set with MV4–11 AML cells [8] and in the data set on NB4 APL cells [9] was over 100 µM each time. In addition, the “% inhibition at 100 μM MAO A” value at human MAO A is given as 79%.
On to `NC1(c2ccccc2)CC1` [4e, 1-Phenylcyclopropan-1-amine hydrochloride], for which the IC50 in data set [1] (setting [10]) was over 100 µM.
As to `NC1CC1c1ccc(NC(=O)OCc2ccccc2)cc1` (centres unmarked) [1b, benzyl [4-(2-aminocyclopropyl)phenyl]carbamate], the IC50 amounted to 25 ± 3.2 µM in the data set on NB4 APL cells [2] and 22.4 ± 3.8 µM with MV4–11 AML cells [3]. In addition, the inhibition at 100 µM amounted to 37% on human MAO B [6] and 96% on human MAO A.
Consider `NC1CC1c1ccc(NC(=O)c2ccccc2NC(=O)OCc2ccccc2)cc1` (centres unmarked) [3j, Benzyl (2-((4-(2-aminocyclopropyl)phenyl)carbamoyl)phenyl)carbamate hydrochloride], for which the figures for the IC50 (in data set [1]; in the data set with NB4 APL cells [2]; in the data set on MV4–11 AML cells [3]) were 0.146 ± 0.022 µM, 8.1 ± 0.9 µM and 8.2 ± 1.2 µM, respectively. The inhibition at 100 µM on human MAO B [6] stood at 17%; at human MAO A it was 72%.
For the molecule `NC1(c2ccc(NC(=O)C(Cc3ccccc3)NC(=O)OCc3ccccc3)cc2)CC1` (centres unmarked) [4f, Benzyl (1-((4-(1-aminocyclopropyl)-phenyl)-amino)-1-oxo-3-phenylpropan-2-yl)-carbamate hydrochloride], the IC50 in data set [1] (setting [10]) is over 100 µM.
As to `NC(=O)C1CC1c1ccccc1` (centres unmarked) [4c, 2-Phenylcyclopropane-1-carboxamide], the IC50 in [1] (setting [10]) is over 100 µM.
